According to patent US7205394B2, “Clathrate of azithromycin hydrate with 1,2-propyleneglycol, method for the manufacture thereof and pharmaceutical composition comprising same” (Hanmi Pharm. Co., Ltd., priority 2001, dated 2007):
Read-outs that look alike come from different tables or passages of the source. One block for each compound: values may come before it.

Tests used:
rat = details: oral administration in rat; cited from earlier work
[1] = prior art forms, background section, cited from earlier work
[2] = Hygroscopic properties: exposure to relative humidity, water content by Karl Fischer method; assay type: physicochemical; details: for Found-Calculated (Difference, %) / Range of Difference (%) / Water content, relative humidity 25% / Water content, relative humidity 50% / Water content, relative humidity 75% / Water content, relative humidity 100%: 7 days; for Found-Calculated (Difference, %) / Range of Difference (%): relative humidity 25-100%; for Found-Calculated (Difference, %) (number in parenthesis) / Range of Difference (%) (number in parenthesis): after 3 days at the corresponding relative humidity; for Water content at onset: before exposure, 7-day series; for Water content at onset / Water content, relative humidity 25% / Water content, relative humidity 50% / Water content, relative humidity 75% / Water content, relative humidity 100%: Karl Fischer; for Water content at onset (number in parenthesis): parenthesis = 3-day series; for Water content, relative humidity 50% (number in parenthesis) / Water content, relative humidity 75% (number in parenthesis) / Water content, relative humidity 100% (number in parenthesis) / Water content, relative humidity 25% (33%) (number in parenthesis): after 3 days; for Water content, relative humidity 25% (33%) (number in parenthesis): relative humidity (33%); for Calculated water content (%): theoretical, for (1) based on m = 1.5 and n = 0.30 in formula (I)
Experimental: Also, the hygroscopic properties of each of the compound obtained in Example 1 (1), azithromycin dihydrate (2), monohydrate (3), and anhydride (4) were determined by exposing each sample to a relative humidity of each 25%, 50%, […] thereof by the Karl Fischer method.

Compound: CC(O)CO (centres unmarked) [1,2-propyleneglycol]
LD50 (rat): 25 mL/kg

Found-Calculated (Difference, %) ([2]; dihydrate): −0.4~+1.51% | Range of Difference (%) ([2]; dihydrate): 1.91% | Found-Calculated (Difference, %) (number in parenthesis) ([2]; dihydrate): (−2.1~+0.6) % | Range of Difference (%) (number in parenthesis) ([2]; dihydrate): 2.7% | Water content at onset ([2]; dihydrate): 4.58% | Water content at onset (number in parenthesis) ([2]; dihydrate): 4.1% | Water content, relative humidity 25% ([2]; dihydrate): 4.20% | Water content, relative humidity 50% ([2]; dihydrate): 4.25% | Water content, relative humidity 50% (number in parenthesis) ([2]; dihydrate): 4.6% | Water content, relative humidity 75% ([2]; dihydrate): 5.10% | Water content, relative humidity 75% (number in parenthesis) ([2]; dihydrate): 4.6% | Water content, relative humidity 100% ([2]; dihydrate): 6.11% | Water content, relative humidity 100% (number in parenthesis) ([2]; dihydrate): 5.2% | Water content, relative humidity 25% (33%) (number in parenthesis) ([2]; dihydrate): 2.5% | Calculated water content (%) ([2]; dihydrate): 4.60%
Compound: CC[C@H]1OC(=O)[C@H](C)[C@@H](O[C@H]2C[C@@](C)(OC)[C@@H](O)[C@H](C)O2)[C@H](C)[C@@H](O[C@@H]2O[C@H](C)C[C@H](N(C)C)[C@H]2O)[C@](C)(O)C[C@@H](C)CN(C)[C@H](C)[C@@H](O)[C@]1(C)O [(2), azithromycin dihydrate]
Hygroscopic property (in words) ([1]; dihydrate): less hydroscopic than the monohydrate

Found-Calculated (Difference, %) ([2]; monohydrate): +1~+3.94% | Range of Difference (%) ([2]; monohydrate): 3.94% | Found-Calculated (Difference, %) (number in parenthesis) ([2]; monohydrate): (−0.05~+4.84) % | Range of Difference (%) (number in parenthesis) ([2]; monohydrate): 4.9% | Water content at onset ([2]; monohydrate): 2.30% | Water content at onset (number in parenthesis) ([2]; monohydrate): 3.2% | Water content, relative humidity 25% ([2]; monohydrate): 3.35% | Water content, relative humidity 50% ([2]; monohydrate): 5.13% | Water content, relative humidity 50% (number in parenthesis) ([2]; monohydrate): 5.6% | Water content, relative humidity 75% ([2]; monohydrate): 5.41% | Water content, relative humidity 75% (number in parenthesis) ([2]; monohydrate): 6.6% | Water content, relative humidity 100% ([2]; monohydrate): 6.29% | Water content, relative humidity 100% (number in parenthesis) ([2]; monohydrate): 7.2% | Water content, relative humidity 25% (33%) (number in parenthesis) ([2]; monohydrate): 2.3% | Calculated water content (%) ([2]; monohydrate): 2.35%
Compound: CC[C@H]1OC(=O)[C@H](C)[C@@H](O[C@H]2C[C@@](C)(OC)[C@@H](O)[C@H](C)O2)[C@H](C)[C@@H](O[C@@H]2O[C@H](C)C[C@H](N(C)C)[C@H]2O)[C@](C)(O)C[C@@H](C)CN(C)[C@H](C)[C@@H](O)[C@]1(C)O [(3), azithromycin monohydrate]

Found-Calculated (Difference, %) [2]: +1.11~+7.00% | Range of Difference (%) [2]: 7.00% | Water content at onset [2]: 0.22% | Water content, relative humidity 25% [2]: 1.11% | Water content, relative humidity 50% [2]: 2.85% | Water content, relative humidity 75% [2]: 4.33% | Water content, relative humidity 100% [2]: 7.00% | Calculated water content (%) [2]: 0.00%
Compound: CC[C@H]1OC(=O)[C@H](C)[C@@H](O[C@H]2C[C@@](C)(OC)[C@@H](O)[C@H](C)O2)[C@H](C)[C@@H](O[C@@H]2O[C@H](C)C[C@H](N(C)C)[C@H]2O)C(C)(O)C[C@H](C)CN(C)[C@H](C)[C@@H](O)[C@]1(C)O (some centres unmarked) [(4), 9-deoxo-9a-aza-9a-methyl-9a-homoerythromycin A]
Hygroscopic property (in words) [1]: highly hygroscopic
